Measured values from patent US10160743B2, “Sulphamoylthiophenamide derivatives and the use thereof as medicaments for the treatment of hepatitis B” (Janssen Sciences Ireland UC, priority 2013, dated 2018).

Experiments:
[1] = test system: HBV; experiment: Anti-HBV activity, HepG2.117 cell line (Tet-off), intracellular HBV DNA by realtime PCR; format: cell-based, Hepatitis B virus; conditions: Hepatitis B virus, HepG2.117, 72 h, HepG2.117 cells, 3 days of treatment
[2] = Cytotoxicity in HepG2 cells, Resazurin assay; format: cell-based; conditions: human, incubated for 4 days, Resazurin viability
[3] = test system: HBV; experiment: Anti-HBV activity, HepG2.2.15 cell line, HBV DNA from secreted virions by realtime PCR; format: cell-based, Hepatitis B virus; conditions: Hepatitis B virus, HepG2.2.15, 144 h, HepG2.2.15 cells, 6 days of treatment

Row | Structure (SMILES) | EC50 [1] [nM] | CC50 at 4 days [2] [nM] | EC50 [3] [nM]
1 | Cc1sc(S(=O)(=O)NC2(C(F)(F)F)CCOC2)cc1C(=O)Nc1ccc(F)c(F)c1 (centres unmarked) [Compound 49, N-(3,4-difluorophenyl)-2-methyl-5-[[3-(trifluoromethyl)tetrahydrofuran-3-yl]sulfamoyl]thiophene-3-carboxamide] | 270 | > 25000 | 290
2 | Cc1sc(S(=O)(=O)NC2(C)COC2)cc1C(=O)Nc1ccc(F)c(Br)c1 [Compound 29, N-(3-Bromo-4-fluorophenyl)-2-methyl-5-[(3-methyloxetan-3-yl)-sulfamoyl]thiophene-3-carboxamide] | 120 | 13200 | 120
3 | Cc1cc(NC(=O)c2cc(S(=O)(=O)N[C@H]3CCOC3)sc2Br)ccc1F [Compound 2, 2-bromo-N-(4-fluoro-3-methyl-phenyl)-5-[[(3S)-tetrahydrofuran-3-yl]-sulfamoyl]thiophene-3-carboxamide] | 1900 | > 25000 | 810
4 | Cc1cc(NC(=O)c2cc(S(=O)(=O)N[C@H](C)CO)sc2Cl)ccc1F [Compound 3, 2-chloro-N-(4-fluoro-3-methyl-phenyl)-5-[[(1R)-2-hydroxy-1-methyl-ethyl]sulfamoyl]thiophene-3-carboxamide] | 340 | > 25000 | 210
5 | Cc1sc(S(=O)(=O)N[C@H](C)C(F)(F)F)cc1C(=O)Nc1ccc(F)c(Br)c1 [Compound 48, N-(3-bromo-4-fluoro-phenyl)-2-methyl-5-[[(1R)-2,2,2-trifluoro-1-methyl-ethyl]sulfamoyl]thiophene-3-carboxamide] | 280 | 7730 | 160
6 | Cc1sc(S(=O)(=O)NC(C)(C)C)cc1C(=O)Nc1ccc(F)c(Br)c1 [Compound 27, N-(3-Bromo-4-fluorophenyl)-5-(tert-butylsulfamoyl)-2-methylthiophene-3-carboxamide] | 90 | 12200 | 130
7 | Cc1cc(NC(=O)c2ccc(S(=O)(=O)N[C@H]3CCOC3)s2)ccc1F [Compound 13, N-(4-fluoro-3-methyl-phenyl)-5-[[(3S)-tetrahydrofuran-3-yl]-sulfamoyl]thiophene-2-carboxamide] | 940 | > 25000 | 1700
8 | Cc1sc(S(=O)(=O)NC(C)(C)C(N)=O)cc1C(=O)Nc1ccc(F)c(F)c1 [Compound 32, 5-[(2-Amino-1,1-dimethyl-2-oxoethyl)sulfamoyl]-N-(3,4-difluorophenyl)-2-methylthiophene-3-carboxamide] | 300 | > 25000 | 220
9 | Cc1sc(S(=O)(=O)NC2(C)COC2)cc1C(=O)Nc1cccc(C(F)(F)F)c1 [Compound 22, 2-methyl-5-[(3-methyloxetan-3-yl)sulfamoyl]-N-[3-(trifluoromethyl)-phenyl]thiophene-3-carboxamide] | 230 | > 25000 | 250
10 | Cc1sc(S(=O)(=O)NC2(C(F)(F)F)CCOC2)cc1C(=O)Nc1cccc(C(F)(F)F)c1 (racemic) [Compound 41, 2-methyl-N-[3-(trifluoromethyl)phenyl]-5-[[3-(trifluoromethyl)tetrahydrofuran-3-yl]sulfamoyl]thiophene-3-carboxamide] | > 1000 | > 25000 | 550
11 | Cc1cc(NC(=O)c2cc(S(=O)(=O)NC3(C)COC3)c(C)s2)ccc1F [Compound 10, N-(4-fluoro-3-methyl-phenyl)-5-methyl-4-[(3-methyloxetan-3-yl)-sulfamoyl]thiophene-2-carboxamide] | 560 | > 25000 | 430
12 | Cc1sc(S(=O)(=O)NC(C)(C)C(F)(F)F)cc1C(=O)Nc1ccc(F)c(C#N)c1 [Compound 45, N-(3-cyano-4-fluoro-phenyl)-2-methyl-5-[(2,2,2-trifluoro-1,1-dimethyl-ethyl)sulfamoyl]thiophene-3-carboxamide] | 420 | > 25000 | 280
13 | Cc1sc(S(=O)(=O)N[C@H](C)C(F)(F)F)cc1C(=O)Nc1ccc(F)c(Cl)c1 [Compound 38, N-(3-Chloro-4-fluorophenyl)-2-methyl-5-{[(1R)-2,2,2-trifluoro-1-methylethyl]sulfamoyl}thiophene-3-carboxamide] | 80 | 14400 | 40
14 | Cc1sc(S(=O)(=O)NC(C)(C)C)cc1C(=O)Nc1ccc(F)c(Cl)c1 [Compound 26, 5-(tert-Butylsulfamoyl)-N-(3-chloro-4-fluorophenyl)-2-methylthiophene-3-carboxamide] | 51 | 11500 | 170
15 | Cc1cc(NC(=O)c2cc(S(=O)(=O)N[C@H]3CCOC3)sc2C2CC2)ccc1F [Compound 6, 2-cyclopropyl-N-(4-fluoro-3-methyl-phenyl)-5-[[(3S)-tetrahydrofuran-3-yl]sulfamoyl]thiophene-3-carboxamide] | 680 | > 25000 | 580
16 | Cc1cc(NC(=O)c2cc(S(=O)(=O)N[C@H]3CCOC3)sc2Cl)ccc1F [Compound 4, 2-chloro-N-(4-fluoro-3-methyl-phenyl)-5-[[(3S)-tetrahydrofuran-3-yl]-sulfamoyl]thiophene-3-carboxamide] | 560 | > 25000 | 570
17 | Cc1cc(NC(=O)c2cc(S(=O)(=O)NC3(C(F)(F)F)CC3)sc2C)ccc1F [Compound 35, N-(4-Fluoro-3-methylphenyl)-2-methyl-5-{[1-(trifluoromethyl)cyclo-propyl]sulfamoyl}thiophene-3-carboxamide] | 40 | > 25000 | 60
18 | Cc1cc(NC(=O)c2cc(S(=O)(=O)N[C@H]3CCOC3)sc2C)ccc1F [Compound 7, N-(4-fluoro-3-methyl-phenyl)-2-methyl-5-[[(3S)-tetrahydrofuran-3-yl]-sulfamoyl]thiophene-3-carboxamide] | 160 | > 25000 | 170
19 | Cc1cc(NC(=O)c2cc(S(=O)(=O)N[C@H]3CCOC3)c(C)s2)ccc1F [Compound 9, N-(4-fluoro-3-methyl-phenyl)-5-methyl-4-[[(3S)-tetrahydrofuran-3-yl]-sulfamoyl]thiophene-2-carboxamide] | 1100 | > 25000 | 790
20 | Cc1cc(NC(=O)c2cc(S(=O)(=O)N[C@H]3CCOC3)sc2C(F)(F)F)ccc1F [Compound 5, N-(4-fluoro-3-methyl-phenyl)-5-[[(3S)-tetrahydrofuran-3-yl]sulfamoyl]-2-(trifluoromethyl)thiophene-3-carboxamide] | 1180 | > 25000 | 1670
21 | Cc1sc(S(=O)(=O)NC(C)(C)C)cc1C(=O)Nc1cccc(C(F)(F)F)c1 [Compound 21, 5-(tert-butylsulfamoyl)-2-methyl-N-[3-(trifluoromethyl)phenyl]thiophene-3-carboxamide] | > 1000 | 10500 | 320
22 | Cc1sc(S(=O)(=O)N[C@@H](C)C(F)(F)F)cc1C(=O)Nc1cc(F)c(F)c(Cl)c1 [Compound 37, N-(3-Chloro-4,5-difluorophenyl)-2-methyl-5-{[(1S)-2,2,2-trifluoro-1-methylethyl]sulfamoyl}thiophene-3-carboxamide] | 220 | 8200 | 160
23 | Cc1sc(S(=O)(=O)NC2(C(F)(F)F)CC2)cc1C(=O)Nc1ccc(F)c(C#N)c1 [Compound 53, N-(3-cyano-4-fluoro-phenyl)-2-methyl-5-[[1-(trifluoromethyl)cyclo-propyl]sulfamoyl]thiophene-3-carboxamide] | 140 | 13700 | 120
24 | Cc1cc(NC(=O)c2cc(S(=O)(=O)N[C@H]3CCOC3)cs2)ccc1F [Compound 8, N-(4-fluoro-3-methyl-phenyl)-4-[[(3S)-tetrahydrofuran-3-yl]sulfamoyl]thiophene-2-carboxamide] | 160 | > 25000 | 100
25 | Cc1sc(S(=O)(=O)NC(C)(C)C)cc1C(=O)Nc1ccc(F)c(C#N)c1 [Compound 24, 5-(tert-Butylsulfamoyl)-N-(3-cyano-4-fluorophenyl)-2-methylthiophene-3-carboxamide] | 150 | > 25000 | 120
26 | Cc1sc(S(=O)(=O)N[C@@H](C)C(F)(F)F)cc1C(=O)Nc1ccc(F)c(C#N)c1 [Compound 46, N-(3-cyano-4-fluoro-phenyl)-2-methyl-5-[[(1S)-2,2,2-trifluoro-1-methyl-ethyl]sulfamoyl]thiophene-3-carboxamide] | 420 | > 25000 | 400
27 | Cc1sc(S(=O)(=O)N[C@H](C)C(F)(F)F)cc1C(=O)Nc1ccc(F)c(F)c1 [Compound 56, N-(3,4-difluorophenyl)-2-methyl-5-[[(1R)-2,2,2-trifluoro-1-methyl-ethyl]sulfamoyl]thiophene-3-carboxamide] | 70 | 14900 | 130
28 | CC[C@@H](C)NS(=O)(=O)c1cc(C(=O)Nc2ccc(F)c(F)c2)c(C)s1 [Compound 18, N-(3,4-difluorophenyl)-2-methyl-5-[[(1R)-1-methylpropyl]sulfamoyl]thiophene-3-carboxamide] | 82 | 14600 | 65
29 | Cc1sc(S(=O)(=O)NC(C)(C)C)cc1C(=O)Nc1cc(F)c(F)c(Cl)c1 [Compound 20, 5-(tert-Butylsulfamoyl)-N-(3-chloro-4,5-difluorophenyl)-2-methylthiophene-3-carboxamide] | 110 | 15900 | 170
30 | Cc1sc(S(=O)(=O)NC(C)(C)C(F)(F)F)cc1C(=O)Nc1cc(F)c(F)c(Cl)c1 [Compound 40, N-(3-chloro-4,5-difluoro-phenyl)-2-methyl-5-[(2,2,2-trifluoro-1,1-dimethyl-ethyl)sulfamoyl]thiophene-3-carboxamide] | 500 | > 25000 | –
